In patent US20040171511A1, “Allergen removing agent” (priority 2001, published 2004):

Description: Component (c1-1) is preferably in a state that it is soluble in the allergen-removing agent.

CCCCCCCCCCCCCCCCO [palmityl alcohol]
solubility in component (a): ≥ 5 g/100 g
solubility in water: ≤ 0.3 g/100 g
